Experimental data published in patent US10696693B2, “Fused imidazole derivatives as TGF-beta inhibitors” (Rigel Pharmaceuticals, Inc., priority 2014, dated 2020).
Read-outs that look alike come from different tables or passages of the source.

Legend:
GDF8 = assay: AlphaScreen SureFire p-SMAD3 (Ser423/425) assay, GDF8-stimulated cells; type: cell-based; details: Mus musculus
How it was run: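 Lysate (5 μL) went into 384-well shallow plates with 5 μL of Reaction Buffer, Activation Buffer and AlphaScreen Acceptor bead mix. Plates were sealed, kept dark and shaken for 2 hours at room temperature. Donor beads in dilution buffer (2 μL) were added for another 1½ hours, and p-SMAD3 signal was read on a Synergy-4 or Enspire reader.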

TGF-β = assay: AlphaScreen SureFire p-SMAD3 (Ser423/425) assay, TGF-β-stimulated cells; type: cell-based; details: Mus musculus
How it was run: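 The p-SMAD-3 (Ser423/425) SureFire assay measured phosphorylation of endogenous SMAD-3 in cell lysates. Cells were plated overnight in collagen-coated plates, exposed to three-fold serially diluted compounds for about 10 minutes, then stimulated with TGFβ. Lysates (5 μL) received acceptor bead mix for 2 hours, then donor beads for 1½ hours before AlphaScreen reading.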

[1] = MPC-11, p-SMAD3 (Ser423/425) AlphaScreen in cell lysate, MPC11, GDF8 stimulation, read-out: GDF8: inhibition of GDF8 signaling, GDF pSMAD (MPC11)
[2] = p-SMAD3 (Ser423/425) AlphaScreen in cell lysate, MPC-11, TGF-β stimulation, read-out: TGF-β: inhibition of TGF-β signaling, TGF-β pSMAD (MPC-11)
[3] = MPC-11, read-out: GDF8: inhibition of GDF8 signaling, GDF pSMAD (MPC11), p-SMAD3 (Ser423/425) AlphaScreen in cell lysate, GDF8 stimulation
[4] = MPC-11, read-out: TGF-β: inhibition of TGF-β signaling, TGF-β pSMAD (MPC-11), p-SMAD3 (Ser423/425) AlphaScreen in cell lysate, TGF-β stimulation

| SMILES | IC50 (GDF8; [1]) [nM] | IC50 (TGF-β; [2]) [nM] | IC50 (GDF8; [3]) [nM] | IC50 (TGF-β; [4]) [nM] |
| --- | --- | --- | --- | --- |
| Cc1cc(-c2nc3n(c2-c2ccc4nccnc4c2)CCC3)c(F)cc1Cl [Compound 254, 6-(2-(4-chloro-2-fluoro-5-methylpheny)-6,7-dihydro-5H-pyrrolo[1,2-a]imidazol-3-yl)quinoxaline] | > 1000 | > 1000 |  |  |
| Cc1cc(-c2nc3n(c2-c2ccc4ncccc4c2)CCC3)c(F)cc1Cl [Compound 255] | > 1000 | > 1000 |  |  |
| COc1c(C)cc(-c2nc3n(c2-c2ccc4ncsc4c2)CCC3)cc1C [Compound 257, 6-(2-(4-methoxy-3,5-dimethylphenyl)-6,7-dihydro-5H-pyrrolo[1,2-a]imidazol-3-yl)benzo[d]thiazole] | > 1000 | > 1000 |  |  |
| COc1c(C)cc(-c2nc3n(c2-c2ccc4nccnc4c2)CCC3)cc1C [Compound 258, 6-(2-(4-methoxy-3,5-dimethylphenyl)-6,7-dihydro-5H-pyrrolo[1,2-a]imidaol-3-yl)quinoxaline] | > 1000 | > 1000 |  |  |
| COc1c(C)cc(-c2nc3n(c2-c2ccc4ncccc4c2)CCC3)cc1C [Compound 259, 6-(2-(4-methoxy-3,5-dimethylphenyl)-6,7-dihydro-5H-pyrrolo[1,2-a]imidazol-3-yl)quinoline] | > 1000 | > 1000 |  |  |
| Cc1c(-c2nc3n(c2-c2ccc4ncsc4c2)CCC3)ccc(F)c1F [Compound 261, 6-(2-(3,4-difluoro-2-methylphenyl)-6,7-dihydro-5H-pyrrolo[1,2-a]imidazol-3-yl)benzo[d]thiazole] | 100 to 1000 | > 1000 |  |  |
| Cc1c(-c2nc3n(c2-c2ccc4nccnc4c2)CCC3)ccc(F)c1F [Compound 262, 6-(2-(3,4-difluoro-2-methylphenyl)-6,7-dihydro-5H-pyrrolo[1,2-a]imidazol-3-yl)quinoxaline] | 100 to 1000 | > 1000 |  |  |
| Cc1c(-c2nc3n(c2-c2ccc4ncccc4c2)CCC3)ccc(F)c1F [Compound 263, 6-(2-(3,4-difluoro-2-methylphenyl)-6,7-dihydro-5H-pyrrolo[1,2-a]imidzaol-3-yl)quinoline] | 100 to 1000 | > 1000 |  |  |
| Fc1ccc(-c2nc3n(c2-c2ccc4[nH]ncc4c2)CCC3)cc1Cl [Compound 264, 5-(2-(3-chloro-4-fluoropheny)-6,7-dihydro-5H-pyrrolo[1,2-a]imidazol-3-yl)-1H-indazole] | < 50 | 100 to 1000 |  |  |
| Fc1ccc(-c2nc3n(c2-c2ccc4ncsc4c2)CCC3)cc1Cl [Compound 265, 6-(2-(3-chloro-4-fluoropheny)-6,7-dihydro-5H-pyrrolo[1,2-a]imidazol-3-yl)benzo[d]thiazole] | 50 to 100 | 100 to 1000 |  |  |
| Fc1ccc(-c2nc3n(c2-c2ccc4nccnc4c2)CCC3)cc1Cl [Compound 266, 6-(2-(3-chloro-4-fluoropheny)-6,7-dihydro-5H-pyrrolo[1,2-a]imidazol-3-yl)quinoxaline] | 50 to 100 | 100 to 1000 |  |  |
| Fc1ccc(-c2nc3n(c2-c2ccc4ncccc4c2)CCC3)cc1Cl [Compound 267, 6-(2-(3-chloro-4-fluoropheny)-6,7-dihydro-5H-pyrrolo[1,2-a]imidazol-3-yl)quinoline] | 100 to 1000 | 100 to 1000 |  |  |
| Cc1cc(-c2nc3n(c2-c2ccc4[nH]ncc4c2)CCC3)c(F)cc1F [Compound 268, 5-(2-(2,4-difluoro-5-methylphenyl)-6,7-dihydro-5H-pyrrolo[1,2-a]imidazol-3-yl)-1H-indazole] | < 50 | 50 to 100 |  |  |
| Cc1cc(-c2nc3n(c2-c2ccc4ncsc4c2)CCC3)c(F)cc1F [Compound 269, 6-(2-(2,4-difluoro-5-methylphenyl)-6,7-dihydro-5H-pyrrolo[1,2-a]imidaozl-3-yl)benzo[d]thiazole] | < 50 | 50 to 100 |  |  |
| Cc1cc(-c2nc3n(c2-c2ccc4nccnc4c2)CCC3)c(F)cc1F [Compound 270, 6-(2-(2,4-difluoro-5-methylphenyl)-6,7-dihydro-5H-pyrrolo[1,2-a]imidazol-3-yl)quinoxaline] | < 50 | 50 to 100 |  |  |
| Cc1cc(F)c(-c2nc3n(c2-c2ccc4[nH]ncc4c2)CCC3)cc1F [Compound 284, 5-(2-(2,5-difluoro-4-methylphenyl)-6,7-dihydro-5H-pyrrolo[1,2-a]imidazol-3-yl)-1H-indazole] |  |  | > 1000 | > 1000 |
| Cc1cc(F)c(-c2nc3n(c2-c2ccc4nccnc4c2)CCC3)cc1F [Compound 286, 6-(2-(2,5-difluoro-4-methylphenyl)-6,7-dihydro-5H-pyrrolo[1,2-a]imidazol-3-yl)quinoxaline] |  |  | > 1000 | > 1000 |
| Cc1cc(F)c(-c2nc3n(c2-c2ccc4ncccc4c2)CCC3)cc1F [Compound 287, 6-(2-(2,5-difluoro-4-methylphenyl)-6,7-dihydro-5H-pyrrolo[1,2-a]imidazol-3-yl)quinoline] |  |  | > 1000 | > 1000 |
| Fc1cc(Cl)c(-c2nc3n(c2-c2ccc4[nH]ncc4c2)CCC3)cc1F [Compound 288, 5-(2-(2-chloro-4,5-difluorophenyl)-6,7-dihydro-5H-pyrrolo[1,2-a]imidazol-3-yl)-1H-indazole] |  |  | 100 to 1000 | > 1000 |

The next lines start with results.

| IC50 (GDF8; [1]) [nM] | IC50 (TGF-β; [2]) [nM] | SMILES | IC50 (GDF8; [3]) [nM] | IC50 (TGF-β; [4]) [nM] |
| --- | --- | --- | --- | --- |
| < 50 | 100 to 1000 | Cc1cc(-c2nc3n(c2-c2ccc4ncccc4c2)CCC3)c(F)cc1F [Compound 271, 6-(2-(2,4-difluoro-5-methylphenyl)-6,7-dihydro-5H-pyrrolo[1,2-a]imidazol-3-yl)quinoline] |  |  |
| > 1000 | > 1000 | Cc1cc(-c2nc3n(c2-c2ccc4[nH]ncc4c2)CCC3)cc(Cl)c1F [Compound 272, 5-(2-(3-chloro-4-fluoro-5-methylphenyl)-6,7-dihydro-5H-pyrrolo[1,2-a]imidazol-3-yl)-1H-indazole] |  |  |
| > 1000 | > 1000 | Cc1cc(-c2nc3n(c2-c2ccc4ncsc4c2)CCC3)cc(Cl)c1F [Compound 273, 6-(2-(3-chloro-4-fluoro-5-methylpheny)-6,7-dihydro-5H-pyrrolo[1,2-a]imidazol-3-yl)benzo[d]thiazole] |  |  |
| > 1000 | > 1000 | Cc1cc(-c2nc3n(c2-c2ccc4nccnc4c2)CCC3)cc(Cl)c1F [Compound 274, 6-(2-(3-chloro-4-fluoro-5-methylpheny)-6,7-dihydro-5H-pyrrolo[1,2-a]imidazol-3-yl)quinoxaline] |  |  |
| > 1000 | > 1000 | Cc1cc(-c2nc3n(c2-c2ccc4ncccc4c2)CCC3)cc(Cl)c1F [Compound 275, 6-(2-(3-chloro-4-fluoro-5-methylpheny)-6,7-dihydro-5H-pyrrolo[1,2-a]imidazol-3-yl)quinoline] |  |  |
| 100 to 1000 | > 1000 | Cc1cc(-c2nc3n(c2-c2ccc4[nH]ncc4c2)CCC3)cc(C)c1F [Compound 276, 5-(2-(4-fluoro-3,5-dimethylphenyl)-6,7-dihydro-5H-pyrrolo[1,2-a]imidazol-3-yl)-1H-indazole] |  |  |
| > 1000 | > 1000 | Cc1cc(-c2nc3n(c2-c2ccc4ncsc4c2)CCC3)cc(C)c1F [Compound 277, 6-(2-(4-fluoro-3,5-dimethylphenyl)-6,7-dihydro-5H-pyrrolo[1,2-a]imidazol-3-yl)benzo[d]thiazole] |  |  |
| > 1000 | > 1000 | Cc1cc(-c2nc3n(c2-c2ccc4nccnc4c2)CCC3)cc(C)c1F [Compound 278, 6-(2-(4-fluoro-3,5-dimethylphenyl)-6,7-dihydro-5H-pyrrolo[1,2-a]imidazol-3-yl)quinoxaline] |  |  |
| > 1000 | > 1000 | Cc1cc(-c2nc3n(c2-c2ccc4ncccc4c2)CCC3)cc(C)c1F [Compound 279] |  |  |
| 50 to 100 | 100 to 1000 | Cc1c(F)ccc(-c2nc3n(c2-c2ccc4[nH]ncc4c2)CCC3)c1F [Compound 280, 5-(2-(2,4-difluoro-3-methylphenyl)-6,7-dihydro-5H-pyrrolo[1,2-a]imidazol-3-yl)-1H-indazole] |  |  |
| 50 to 100 | 100 to 1000 | Cc1c(F)ccc(-c2nc3n(c2-c2ccc4ncsc4c2)CCC3)c1F [Compound 281, 6-(2-(2,4-difluoro-3-methylphenyl)-6,7-dihydro-5H-pyrrolo[1,2-a]imidazol-3-yl)benzo[d]thiazol] |  |  |
| 100 to 1000 | 100 to 1000 | Cc1c(F)ccc(-c2nc3n(c2-c2ccc4nccnc4c2)CCC3)c1F [Compound 282, 6-(2-(2,4-difluoro-3-methylphenyl)-6,7-dihydro-5H-pyrrolo[1,2-a]imidazol-3-yl)quinoxaline] |  |  |
| 100 to 1000 | > 1000 | Cc1c(F)ccc(-c2nc3n(c2-c2ccc4ncccc4c2)CCC3)c1F [Compound 283, 6-(2-(2,4-difluoro-3-methylphenyl)-6,7-dihydro-5H-pyrrolo[1,2-a]imidazol-3-yl)quinoline] |  |  |
| > 1000 | > 1000 | Cc1cc(F)c(-c2nc3n(c2-c2ccc4ncsc4c2)CCC3)cc1F [Compound 285, 6-(2-(2,5-difluoro-4-methylphenyl)-6,7-dihydro-5H-pyrrolo[1,2-a]imidazol-3-yl)benzo[d]thiazole] |  |  |
| < 50 | 100 to 1000 | Fc1cc(Cl)c(-c2nc3n(c2-c2ccc4ncsc4c2)CCC3)cc1F [Compound 289, 6-(2-(2-chloro-4,5-difluorophenyl)-6,7-dihydro-5H-pyrrolo[1,2-a]imidazol-3-yl)benzo[d]thiazole] |  |  |
